“Also recorded” adds a separate entry of the source.
What follows are substances tested on hair follicles on the dorsal skin at the refractory telogen phase (assay: mouse model of hair regeneration (sample applied on dorsal skin at refractory telogen phase)). Details: high dosage level (2000 μM) administrated on the dorsal skin once a day for 10 days; female C57BL/6 mice; negative = no hair growth.
Format: in vivo
Excerpt: The experimental model of the present disclosure is derived from the mouse model of the hair regeneration, which is studied by Dr. Chuong in University of Southern California.
The mouse model adopts female C57BL/6 mice (about 8 weeks).
In accordance with the reports (Muller-Rover et al., 2001; Plikus et al., 2009), after the hair removal on the dorsal skin of the female C57BL/6 mice by wax or uprooting, the hair follicles enter the anagen phase on the seventh day from hair removal. At this time, the dorsal hair will regenerate during the anagen phase, which continues fourteen days. Such step synchronizes all follicles on the dorsal skin.
The hair follicles on the dorsal skin enter the refractory telogen phase through the anagen phase. The refractory telogen phase continues twenty eight days. In the present disclosure, the sample solution is applied on the dorsal skin, where the hair follicle stays at the refractory telogen phase, to observe whether the peptides are beneficial to hair growth.
In some embodiments shown in FIG. 1, after the hair removal of the dorsal skin, the new growth hair is removed again at twenty first day after the first hair removal. […] The sample solution is applied on each of the sections for 10 days. The administration of the sample solution includes, but not limited to, the injection (50 μl) and the coating (10 μl). In addition, the dosage of the sample solution includes, but not limited to, the high dosage level (2000 μM) and the low dosage level (200 μM).
In order to avoid experimental error due to manual operation, a positive control and a negative control are predetermined on two sections. […] The second section 2 is coated with high dosage level of HGP or the pharmaceutical composition for 10 days (once a day). The third section 3 is coated with low dosage level of HGP or the pharmaceutical composition for 10 days (once a day). The fourth section 4 is coated with 100% alcohol for 10 days (once a day). The fourth section 4 is regarded as the negative control. The fifth section 5 is continuously injected with the high dosage of HGP or pharmaceutical composition for 10 days (once a day). The sixth section 6 is continuously injected with the low dosage of HGP or pharmaceutical composition for 10 days (once a day). The HGP prepared for the sections is the same amino acid sequence.
HGP or pharmaceutical composition having the same as referred at Table 1 is implemented through the above-mentioned process and then the hair regeneration condition is recorded every day. Since the period of the refractory telogen phase is 28 days, it is regarded as a negative result that no hair regeneration is observed at thirtieth day after the administration of the sample solution.
The number x of the hair growth in the table 3 means that the hair regeneration condition is observed at the x'th day after the high dosage level is administrated on the dorsal skin. For instance, the number (x=5) means that the hair growth is observed at the fifth day. Furthermore, the symbol NA represents the need for further analysis. […] In addition, the “negative” represents no hair growth by using the peptide in accordance with the experimental number.

Substance | Number x (hair regeneration condition is observed at the x'th day after administration)
AGSFFSGRSSSR (a designed peptide according to experiments) [P37] | 22 days
AQAGSFVRSSSR (a designed peptide according to experiments) [P35] | negative
AQAVRSSSR (a designed peptide according to experiments) [P14] | 22 days
AVRSSSR (a designed peptide according to experiments) [P16] | negative
GPLAQAVRSSSR (a designed peptide according to experiments) [P27] | 22 days
GSFAQAVRSSSR (a designed peptide according to experiments) [P29] | 22 days
GSFGQAVRSSSR (a designed peptide according to experiments) [P30] | negative
GSFGSAVRSSSR (a designed peptide according to experiments) [P31] | 22 days
GSFGSFVRSSSR (a designed peptide according to experiments) [P32] | negative
GSLAQAVRSSSR (a designed peptide according to experiments) [P28] | negative
LAQAGSVRSSSR (a designed peptide according to experiments) [P34] | negative
LAQAVRSSSR (a designed peptide according to experiments) [P13] | 22 days
PLAQAVRSSSR (a designed peptide according to experiments) [P12] | 22 days
QAGSFGFRSSSR (a designed peptide according to experiments) [P36] | negative
QAVRSSSR (a designed peptide according to experiments) [P15] | negative
RSSSR (a designed peptide according to experiments) [P5] | 22 days
SPLAQ (a designed peptide according to experiments) [P3] | 22 days
SPLAQA (a designed peptide according to experiments) [P11] | 22 days
SPLAQAGSFGSF (a designed peptide according to experiments) [P23] | negative

Substance | Number x (hair regeneration condition is observed at the x'th day after administration)
SPLAQAV (a designed peptide according to experiments) [P10] | 22 days
SPLAQAVGSFGS (a designed peptide according to experiments) [P22] | negative
SPLAQAVR (a designed peptide according to experiments) [P9] | 19 days
SPLAQAVRGSFG (a designed peptide according to experiments) [P21] | negative
SPLAQAVRS (a designed peptide according to experiments) [P8] | negative
SPLAQAVRSGSF (a designed peptide according to experiments) [P20] | negative
SPLAQAVRSS (a designed peptide according to experiments) [P7] | 22 days
SPLAQAVRSSGS (a designed peptide according to experiments) [P19] | negative
SPLAQAVRSSS (a designed peptide according to experiments) [P6] | negative
SPLAQAVRSSSG [P18] | negative
SPLAQAVRSSSR (a designed peptide according to experiments) [P1] | 22 days
SPLAQAVRSSSRT (a designed peptide according to experiments) [P26] | negative
SPLAQAVRSSSRTP (a designed peptide according to experiments) [P25] | negative
SPLAQAVRSSSRTPS (a designed peptide according to experiments) [P4] | 22 days
SPLAQFRSSSRG (a designed peptide according to experiments) [P33] | negative
SPLAQGSFGSFG [P24] | negative
VRSSS (a designed peptide according to experiments) [P2] | negative
VRSSSR (a designed peptide according to experiments) [P17] | negative

Each substance was assayed on β-catenin (assay: TCF reporter assay in HaCaT Keratinocyte cell line). Details: 200 μM peptide; HaCaT Keratinocytes; vs untreated CTL; listed as SEQ ID No: 1 peptide.
Format: cell-based
Method: FIG. 3 illustrates a schematic view of a TCF reporter assay in HaCaT Keratinocyte cell line. TOP represents that the reporter gene has a functional binding site where β-catenin is bound. […] CTL represents that HaCaT Keratinocytes are not treated with any stimulant. iPept-2 means that HaCaT Keratinocytes are treated with the SEQ ID No: 1 peptide.
(§1) The SEQ ID No. 1 peptide is treated in Human Hair Follicular Keratinocytes (HHFK) and HaCaT Keratinocyte to study the hair growth mechanism induced by the SEQ ID No. 1 peptide.
(§2) In the present disclosure, HHFK and HaCaT Keratinocyte are used as cell models for realizing the mechanism. Reporter assay is used as bioactivity assays to identify how the SEQ ID No. 1 peptide improves hair growth.

Substance | activity of β-catenin (relative luciferase activity, TOP/FOP reporter)
SPLAQAVRSSSR (a designed peptide according to experiments) [P1] | increase the activity of β-catenin; also recorded: enhance activity of β-catenin

Each substance was assayed on β-catenin (assay: TCF reporter assay in Human Hair Follicular Keratinocytes (HHFK) cell line). Details: 200 μM peptide, vs untreated CTL, listed as SEQ ID No: 1 peptide.
Format: cell-based
Method: FIG. 4 illustrates a schematic view of a TCF reporter assay in Human Hair Follicular Keratinocytes (HHFK) cell line. TOP represents that the reporter gene has a functional binding site where β-catenin is bound. […] CTL represents that HHFK cell line is not treated with any stimulant. iPept-2 means that HHFK cell line is treated with the SEQ ID No: 1 peptide.
as §1, §2

Substance | activity of β-catenin (relative luciferase activity, TOP/FOP reporter)
SPLAQAVRSSSR (a designed peptide according to experiments) [P1] | increase the activity of β-catenin; also recorded: enhance activity of β-catenin

Source: patent publication US9597370B2, “Method for promoting hair growth” (INDUSTRIAL TECHNOLOGY RESEARCH INSTITUTE, priority 2013, dated 2017)
